From US9023767B2, “γ-Secretase substrates and methods of use” (Memorial Sloan-Kettering Cancer Center, priority 2009, dated 2015)
Where “and” joins values, the source holds several entries; their conditions need not be identical. Equal entries are not always repeated. Each block holds one molecule with its values, some of them ahead of it.

Columns and labels:
[1] = target: T1, γ-secretase (Homo sapiens (Human), UniProt P49768); test: In vitro γ-secretase assay, solubilized γ-secretase, ECL; assay type: biochemical; details: Sb4 substrate
Excerpt: The γ-secretase cleaved Aβ product derived from C100Flag substrate was detected by a pair of antibodies (biotinylated 4G8 and ruthenylated G2-10*) while Sb4 cleaved product was detected by ruthenylated G2-10* alone (FIG. 10a) and quantified using electrochemiluminescence (ECL) technology.
An in vitro assay was based on the one previously reported by Li et al. (2000), except we utilized Sb4 substrate that eliminated the need for biotinylated antibody. […] All assays incorporate ruthenylated G2-10* antibody to detect 40-site cleavage of APP or recombinant Sb4 substrate and quantitated activity by measuring ECL.

[2] = target: T2, γ-secretase (Mus musculus (Mouse), UniProt P49769); test: Cell-based activity assay, N2A cells stably over-expressing APP; details: 24 hrs, Aβ40; read-out: Cell-based (nM), IC50
Protocol: (§1) The potency of two structurally different GSIs was assayed in four unique γ-secretase activity assays. IC50 values were determined from the dose response curves using a non-linear regression analysis in the Prism software. An in vitro assay was based on the one previously reported by Li et al. (2000), except we utilized Sb4 substrate that eliminated the need for biotinylated antibody. The cell-based activity assay used N2A mouse neuroblastoma cells stably over-expressing APP and a biotinylated 4G8 antibody that binds the C-terminus of the amyloid beta peptide. The exo-cell assay incubated HeLa cells simultaneously with GSI, Sb4 substrate as well as 0.25% CHAPSO detergent prior to detecting substrate cleavage. Finally, the extended exo-cell assay first incubated HeLa cells with GSI for 24 hrs. Subsequently, the cells were washed 1× in PBS and then incubated with Sb4 substrate and CHAPSO detergent. The assay was then carried out exactly as described for the original exo-cell method. All assays incorporate ruthenylated G2-10* antibody to detect 40-site cleavage of APP or recombinant Sb4 substrate and quantitated activity by measuring ECL. The latter assays were performed as previously described (Li et al., 2000). In the in vitro assay, recombinant Sb4 substrate was incubated for 2.5 hours at 37° C. in pH 7.0 PIPES buffer in the presence of 0.25% CHAPSO detergent and solubilized γ-secretase at a final concentration of 40 ng/ul. The detection of cleaved substrate was determined using ruthenylated G2-10* antibody. Since the Sb4 substrate is biotinylated additional 6E10 biotinylated antibody used in earlier assays is not required. In the cell-based assay, N2A mouse neuroblastoma cells that stably overexpress amyloid precursor protein were incubated with γ-secretase inhibitors in a final concentration of 1% DMSO for 24 hrs. Following incubation, the supernatant was removed from the cells and assayed for Aβ40, the cleaved APP product, using ruthenylated G2-10* antibody as well as biotinylated 4G8 antibody.

[3] = target: T1, γ-secretase; test: Exo-cell γ-secretase assay, HeLa cells, Sb4 substrate; assay type: cell-based
Protocol: Therefore, HeLa cells were first incubated with Sb4 substrate, as well as CHAPSO detergent as depicted in FIG. 14c. Cells were seeded at their indicated concentration in 96-well plates and allowed to attach overnight. The next day, media was removed and cells were washed once with PBS. Fresh media was then added containing 0.25% CHAPSO detergent, Sb4 substrate to a final concentration of 1 μM, and 1% DMSO or γ-secretase inhibitor. This was incubated for 2.5 hours at 37° C. Media was removed and cell debris was pelleted from this media for 5 min. at 3,500 rpm. Supernatant was then added to ruthenylated G2-10* antibody that recognizes cleaved product, but not uncleaved substrate. This was incubated for an additional 2 hours at room temperature. Finally, magnetic streptavidin beads were added to a final concentration of 80 μg/ml and incubated for 30 min. at room temperature. Assay buffer was added to the samples and γ-secretase-mediated cleavage of substrate was monitored using electrochemiluminescence (ECL) (Li et al., 2000). (FIG. 14c).
as §1

[4] = target: T1, γ-secretase; test: Extended exo-cell γ-secretase assay, HeLa cells; assay type: cell-based; details: 24 hrs pretreatment; read-out: Extended Exo-Cell (nM), IC50
Protocol: as §1, with “In the cell-based assay, N2A mouse neuroblastoma cells that stably overexpress amyloid precursor protein were incubated with γ-secretase inhibitors in a final concentration of 1% DMSO for 24 hrs. Following incubation, the supernatant was removed from the cells and assayed for Aβ40, the cleaved APP product, using ruthenylated G2-10* antibody as well as biotinylated 4G8 antibody.” left out
The exo-cell assay was adapted to monitor real-time γ-secretase activity and inhibition over extended times of pretreatment regimens. […] This modified, extended treatment exo-cell assay is capable of quantifying remaining γ-secretase activity following drug treatment on virtually any cell type. The IC50 values for Compound E and GSI-34 were calculated using the extended exo-cell assay (Table 3 and FIG. 15d). […]

[5] = tested on: A20 mouse lymphoma cells; test: Lymphoma cell proliferation assay, [3H]thymidine incorporation; assay type: cell-based; details: 48 hours
Protocol: For a lymphoma cell proliferation assay, A20 mouse lymphoma cells were seeded in a 96-well plate at a concentration of 5×10^5 cells/ml in 100 μl RPMI media containing 2% fetal bovine serum. An additional 100 μl of media containing DMSO or γ-secretase inhibitor was added and incubated for 48 hours at 37° C. After this incubation, the cells were incubated for 5 hours with 2 μCi/ml [^3H]thymidine at 37° C. Proliferative response was then evaluated by harvesting the tritiated DNA from cells using a Skatron cell harvester and proliferation assessed as a function of [^3H]thymidine incorporation measured on a β-counter.

[6] = target: T2, γ-secretase; test: Cellular γ-secretase activity, secreted Aβ40 from N2A APP stable cells; assay type: cell-based; details: 48 hrs
Protocol: FIG. 5. […] The conditioned media were collected and secreted Aβ40 was measured with 6E10/G2-10 antibodies (mean±SEM; n=3). The activities of the peptide treatments were normalized to the DMSO treatment. […] The same experiments were performed as FIG. 5c. The cell lysates were analyzed by CT-15 antibody. Upper panel: full length APP. Lower panel: CTFs. […] The ΔE-Notch1 (a Notch construct with deletion of the extracellular portion and tagged by Myc) was transfected into HEK293 cells.
After transfection or compound treatment, conditioned cell media were collected and diluted in RIPA buffer. Secreted Aβ peptides were detected by ECL assay using biotinylated 6E10 and ruthenylated G2-10 antibodies.

[7] = target: T3, γ-secretase (Homo sapiens (Human), UniProt P49768+Q92542); test: In vitro γ-secretase assay, HeLa membrane, APP-derived substrates, ECL detection; assay type: biochemical
Protocol: The recombinant proteins were incubated with γ-secretase (40 μg/ml) in the presence or absence of 1 μM γ-secretase inhibitor L-685,458 (CAS [292632-98-5], shown below). The reaction mixture contains 0.25% 3[(3-cholamidopropyl) dimethylammonio]-2-hydroxypropanesulfonic acid (CHAPSO), 0.1 μg/μl BSA, protease inhibitor, 50 mM PIPES, pH 7.0, 5 mM MgCl2, 5 mM CaCl2 and 150 mM KCl. The reaction was incubated for 2.5 hr at 37° C. and stopped by adding RIPA buffer (150 mM NaCl, 1.0% NP-40, 0.5% sodium
[drawing 1] deoxycholate, 0.1% SDS, 50 mM Tris HCl, pH 8.0). The products were detected with various antibody combinations as previously described (Lai et al., 2003; J. Biol. Chem., 278: 22475-22481; Li et al., 2000, Proc. Natl. Acad. Sci. USA, 97: 6138-6143; Yin et al., 2007, J. Biol. Chem., 282:23639-23644) using electrochemiluminescence (ECL). The amount of product was determined using synthetic peptide or recombinant standards. The Km and Vmax were determined from the Michaelis-Menten equation Michaelis-Menten Kinetics (ν=Vm[S]/([…]; ν: initial rate; Vm: maximum velocity; Km: the Michaelis-Menten constant, S: substrate). P-values were calculated from Student t-test. 7.1.5 Cell-Based Aβ Production Assay and Western Blot

[8] = target: T3, γ-secretase; test: In vitro γ-secretase cleavage of Notch1 peptide substrate, HeLa membrane, Val1744 antibody; assay type: biochemical
Protocol: FIG. 4. […] Various concentrations of inhibitor were incubated with APP substrate (S4) or Notch peptide substrate containing the C-terminal biotinylated transmembrane domain of Notch1 and HeLa cell membrane in the presence of 0.25% CHAPSO. Aβ40 was detected by G2-10 antibody. […] Activities are expressed as percentage relative to reading that was produced in DMSO control. […] Various concentrations of S4 substrate were incubated with HeLa membrane in fixed concentrations of inhibitor as indicated. The double reciprocal velocity (1/v) and substrate concentrations (1/S) are plotted to determine the type of inhibition. […] Assays were conducted as described in FIG. 4A. […] The labeled samples were solubilized with RIPA buffer. Biotinylated proteins were captured with streptavidin-agarose and probed by immunoblotting using antibodies against biotin, PS1-CTF, PS1-NTF, Nicastrin, PEN-2 and APH-1a. HeLa cell membrane proteins were directly loaded onto lanes indicated by an arrow in the PEN-2 and APH-1a blots as positive controls. […] Upper panel: PS1-NTF; Lower panel: PS1-CTF. […] Rev.

[9] = target: T2, γ-secretase; test: In vitro γ-secretase activity from mouse brain membrane; assay type: biochemical
Protocol: (§2) FIG. 3. Effect of the inhibitory domain on in vitro γ-secretase activity. […] The γ-secretase cleavage site is indicated by an arrow between orange and blue shades. The Aβ17-23 region is marked by dotted square. (B) The kinetic analyses of γ-secretase reactivity with βCTF and βCTFΔ substrates. […] The product Aβ40 was assayed with biotinylated 6E10 and ruthenylated G2-10 antibodies by ECL. […] Note: […] The product Aβ38 was assayed with biotinylated 6E10 and ruthenylated Aβ38 antibodies (purchased from Dr. […]) (data represent the mean of duplicates with variance<10%). (E) The effect of an inhibitory domain on γ-secretase activity for ACID production. HEK293 cell membrane was prepared from cells that have been transfected with β[…] et al., 1999) and βCTFΔ(SPA4CTΔ) constructs for 48 hours. Cell membranes (2 mg/ml) were incubated in the absence and presence of 2 μM L-685,458 and then analyzed by Western blotting with CT-15 antibody (Chen et al., 2002). It was next determined whether γ-secretase from other sources has the same preference for the βCTFΔ substrate. […] Product formation was monitored by G2-10 and G2-11 antibodies, respectively. […] In addition, the γ-secretase activity was assayed for Aβ38 production and ε-cleavage (FIGS. 3D and 3E). The Aβ38-site cleavage was detected with a combination of biotinylated 6E10 and ruthenylated anti-Aβ38 antibodies. […]

[10] = target: T1, γ-secretase; test: AICD production (ε-cleavage), membranes of transfected HEK293 cells, Western blot; assay type: biochemical
Protocol: as §2

- IC50 [1]: 1 nM
- IC50 [2]: 32.4 nM
- IC50 ([3]; ECL detection, read-out: Exo-Cell (nM), IC50): 5.9 nM
- IC50 ([3]; HTRF detection, read-out: IC50, exo-cell assay): 5.4 nM
- IC50 [4]: 38.7 nM and 39 nM
Molecule: O=C(COc1ccc(F)cc1)Nc1ccc2c(c1)CC1CCC(C2)C1NS(=O)(=O)c1ccc(Cl)s1 (centres unmarked) [GSI-34]
- reduction of cellular proliferation ([5]; 300 nM): 30%
- inhibition of cellular proliferation [5]: able to inhibit cellular proliferation

- inhibition at 100 µM ([6]; 100 μM, read-out: inhibition of the production of Aβ): 70%
Molecule: COC(=O)CC[C@@H](NC(=O)[C@H](N)CC(=O)OC)C(=O)N[C@H](C)C(=O)N[C@H](Cc1ccccc1)C(=O)N[C@H](Cc1ccccc1)C(=O)N[C@@H](C(=O)N[C@H](CC(C)C)C(N)=O)C(C)C [RI-PM-1]
- effect on secreted Aβ species ([6]; 100, 60 and 30 μM): reduces secreted Aβ species in a dose dependent manner

- inhibition of γ-secretase activity, APP processing [7]: did not inhibit
- inhibition of γ-secretase activity, Notch processing [8]: did not inhibit
Molecule: VKSEPVEPPL [S2-site derived Notch peptide, N-terminal residues of NEXT]

- reaction rate of hydrolysis compared to βCTF, 40-site ([9]; G2-10): 25 times
- reaction rate of hydrolysis compared to βCTF, 42-site ([9]; G2-11): 11 times
- effect of domain deletion on ε-cleavage (AICD) [10]: no effect
B1: βCTFΔ: βCTF in which the Aβ17-23 inhibitory domain is deleted (protein, listed as Homo sapiens)
chain: GSHMDAEFRHDSGYEVHHQKVGSNKGAIIGLMVGGVVIATVIVITLVMLKKKQYTSIHHGVVEVDAAVTPEERHLSKMQQNGYENPTYKFFEQMQNDYKDDDDK
